Experimental data: ChEMBL document CHEMBL5212743, “Selectivity Literature for EUbOPEN Chemogenomics Library wave 3” (2023)

Columns and labels:
[1] = target: Histone-lysine N-methyltransferase PRDM7 (Homo sapiens) (UniProt Q9NQW5); experiment: Selectivity interaction (Methyltransferase panel (DSF assay)) EUB0000234b PRDM7
[2] = target: Histone-lysine N-methyltransferase PRDM9 (Homo sapiens) (UniProt Q9NQV7); experiment: Selectivity interaction (NanoLuciferase thermal shift assay (NALTSA, in HEK293 cells)) EUB0000234b PRDM9; type: cell-based
Sequence of Histone-lysine N-methyltransferase PRDM9 (Homo sapiens) (Q9NQV7 whole entry): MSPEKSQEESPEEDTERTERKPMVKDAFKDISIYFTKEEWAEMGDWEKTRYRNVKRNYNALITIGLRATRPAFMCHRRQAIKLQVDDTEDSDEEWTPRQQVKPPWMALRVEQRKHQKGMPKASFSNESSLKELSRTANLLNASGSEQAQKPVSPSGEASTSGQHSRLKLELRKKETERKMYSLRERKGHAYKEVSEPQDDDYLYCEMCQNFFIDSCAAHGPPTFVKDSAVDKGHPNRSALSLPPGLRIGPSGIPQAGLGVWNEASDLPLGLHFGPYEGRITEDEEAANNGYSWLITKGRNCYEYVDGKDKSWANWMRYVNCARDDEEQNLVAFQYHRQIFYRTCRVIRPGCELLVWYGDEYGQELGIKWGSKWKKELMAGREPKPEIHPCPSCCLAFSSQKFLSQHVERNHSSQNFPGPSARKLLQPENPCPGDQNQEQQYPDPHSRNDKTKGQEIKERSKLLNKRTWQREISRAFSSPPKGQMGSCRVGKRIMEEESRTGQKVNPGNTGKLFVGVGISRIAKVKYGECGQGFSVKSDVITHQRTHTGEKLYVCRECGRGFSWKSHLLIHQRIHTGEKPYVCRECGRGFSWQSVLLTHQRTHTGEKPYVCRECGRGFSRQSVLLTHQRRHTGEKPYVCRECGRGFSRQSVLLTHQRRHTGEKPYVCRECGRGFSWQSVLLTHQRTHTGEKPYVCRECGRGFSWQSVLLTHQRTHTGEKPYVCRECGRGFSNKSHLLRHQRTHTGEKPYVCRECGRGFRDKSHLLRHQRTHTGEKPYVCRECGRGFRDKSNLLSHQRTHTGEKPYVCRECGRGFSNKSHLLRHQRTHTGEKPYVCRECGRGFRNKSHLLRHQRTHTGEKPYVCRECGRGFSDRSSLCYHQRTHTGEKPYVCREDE

Mu-type opioid receptor [3] = target: T1, Mu-type opioid receptor (Homo sapiens, UniProt P35372); experiment: Selectivity interaction (GloSensor assay) EUB0000234b OPRM1
T1 sequence (P35372 whole entry, the tested form may be a part): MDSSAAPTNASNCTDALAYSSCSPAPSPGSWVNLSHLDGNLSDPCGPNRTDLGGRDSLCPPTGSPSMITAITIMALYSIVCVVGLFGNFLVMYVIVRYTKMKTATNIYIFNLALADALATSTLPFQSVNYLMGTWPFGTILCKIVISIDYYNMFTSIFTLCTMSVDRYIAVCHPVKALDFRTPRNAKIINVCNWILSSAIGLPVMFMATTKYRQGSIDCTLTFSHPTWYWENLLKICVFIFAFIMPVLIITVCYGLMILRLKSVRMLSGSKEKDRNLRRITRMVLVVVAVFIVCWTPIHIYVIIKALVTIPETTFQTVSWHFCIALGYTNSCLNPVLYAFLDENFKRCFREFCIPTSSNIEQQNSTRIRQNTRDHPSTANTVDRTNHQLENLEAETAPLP

[4] = target: PR domain zinc finger protein 1 (Homo sapiens) (UniProt O75626); experiment: Selectivity interaction (Methyltransferase panel (DSF assay)) EUB0000234b PRDM1
Mu-type opioid receptor [5] = target: T1, Mu-type opioid receptor; experiment: Selectivity interaction (Eurofins Panlabs Discovery Services Panel (enzymes and receptors)) EUB0000234b OPRM1; settings: at 10 µM
[6] = target: Adenosine receptor A2b (Homo sapiens) (UniProt P29275); experiment: Selectivity interaction (Eurofins Panlabs Discovery Services Panel (enzymes and receptors)) EUB0000234b ADORA2B; settings: at 10 µM
Sequence of Adenosine receptor A2b (Homo sapiens) (P29275 whole entry): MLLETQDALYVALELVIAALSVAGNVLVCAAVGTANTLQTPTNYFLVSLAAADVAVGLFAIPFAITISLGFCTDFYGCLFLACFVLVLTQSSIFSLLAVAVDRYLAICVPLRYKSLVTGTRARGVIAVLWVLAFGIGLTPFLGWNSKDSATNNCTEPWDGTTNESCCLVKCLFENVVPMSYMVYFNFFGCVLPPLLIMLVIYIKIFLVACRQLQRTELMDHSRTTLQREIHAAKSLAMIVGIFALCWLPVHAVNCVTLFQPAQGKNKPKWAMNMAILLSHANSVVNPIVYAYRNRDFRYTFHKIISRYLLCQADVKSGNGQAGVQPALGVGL

[7] = target: Histone-lysine N-methyltransferase MECOM (Homo sapiens) (UniProt Q03112); experiment: Selectivity interaction (Methyltransferase panel (DSF assay)) EUB0000234b MECOM
Sequence of Histone-lysine N-methyltransferase MECOM (Homo sapiens) (Q03112 whole entry): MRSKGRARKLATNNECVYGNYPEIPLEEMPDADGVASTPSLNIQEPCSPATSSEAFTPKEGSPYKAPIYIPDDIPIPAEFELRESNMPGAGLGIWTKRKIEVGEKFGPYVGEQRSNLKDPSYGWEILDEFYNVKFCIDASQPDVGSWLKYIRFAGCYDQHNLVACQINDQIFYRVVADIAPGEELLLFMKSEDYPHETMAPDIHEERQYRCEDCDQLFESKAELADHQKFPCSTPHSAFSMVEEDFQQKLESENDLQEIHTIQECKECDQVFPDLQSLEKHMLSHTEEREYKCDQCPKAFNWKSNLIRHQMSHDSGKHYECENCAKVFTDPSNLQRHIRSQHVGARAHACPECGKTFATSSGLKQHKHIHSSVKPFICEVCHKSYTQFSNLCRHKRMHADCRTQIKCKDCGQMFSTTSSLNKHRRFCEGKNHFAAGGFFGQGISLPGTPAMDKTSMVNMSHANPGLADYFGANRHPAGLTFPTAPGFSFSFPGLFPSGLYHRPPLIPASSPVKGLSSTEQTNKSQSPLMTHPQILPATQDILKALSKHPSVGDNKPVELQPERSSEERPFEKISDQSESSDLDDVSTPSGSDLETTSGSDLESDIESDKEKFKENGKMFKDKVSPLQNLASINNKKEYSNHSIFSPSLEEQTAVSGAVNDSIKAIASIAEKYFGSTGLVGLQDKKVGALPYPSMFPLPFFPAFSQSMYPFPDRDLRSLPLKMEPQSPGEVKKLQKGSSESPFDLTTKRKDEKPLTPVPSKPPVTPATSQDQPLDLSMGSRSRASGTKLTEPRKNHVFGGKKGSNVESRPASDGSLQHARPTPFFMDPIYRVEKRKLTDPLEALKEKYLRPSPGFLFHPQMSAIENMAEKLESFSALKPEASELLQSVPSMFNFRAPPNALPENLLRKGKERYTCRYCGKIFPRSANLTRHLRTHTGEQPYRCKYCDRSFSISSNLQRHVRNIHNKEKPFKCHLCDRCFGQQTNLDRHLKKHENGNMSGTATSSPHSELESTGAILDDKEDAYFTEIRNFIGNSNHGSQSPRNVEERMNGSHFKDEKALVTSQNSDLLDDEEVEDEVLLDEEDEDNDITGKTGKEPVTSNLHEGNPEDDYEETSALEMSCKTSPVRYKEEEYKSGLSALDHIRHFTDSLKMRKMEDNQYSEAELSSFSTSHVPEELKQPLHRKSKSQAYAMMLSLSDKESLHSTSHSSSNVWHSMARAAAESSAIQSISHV

[8] = target: T2, Muscarinic acetylcholine receptor M2 (Homo sapiens) (UniProt P08172); experiment: Selectivity interaction (Eurofins Panlabs Discovery Services Panel (enzymes and receptors)) EUB0000234b CHRM2; settings: at 10 µM
T2 sequence (whole entry): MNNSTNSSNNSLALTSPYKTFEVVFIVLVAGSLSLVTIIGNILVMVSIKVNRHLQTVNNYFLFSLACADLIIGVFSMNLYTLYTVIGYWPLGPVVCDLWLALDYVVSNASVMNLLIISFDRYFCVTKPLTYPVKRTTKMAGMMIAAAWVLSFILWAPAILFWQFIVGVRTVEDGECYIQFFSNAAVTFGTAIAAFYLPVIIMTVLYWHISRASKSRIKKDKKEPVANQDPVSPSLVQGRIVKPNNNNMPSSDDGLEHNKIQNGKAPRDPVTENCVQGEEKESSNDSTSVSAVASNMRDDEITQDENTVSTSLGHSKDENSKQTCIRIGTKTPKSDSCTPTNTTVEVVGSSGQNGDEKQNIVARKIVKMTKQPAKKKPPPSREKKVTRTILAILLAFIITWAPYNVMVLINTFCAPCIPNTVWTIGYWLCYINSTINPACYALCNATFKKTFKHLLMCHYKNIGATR

[9] = target: PR domain zinc finger protein 12 (Homo sapiens) (UniProt Q9H4Q4); experiment: Selectivity interaction (Methyltransferase panel (DSF assay)) EUB0000234b PRDM12
[10] = target: Muscarinic acetylcholine receptor M2 (Homo sapiens, UniProt P08172); experiment: Selectivity interaction (GloSensor assay) EUB0000234b CHRM2
[11] = target: PR domain-containing protein 11 (Homo sapiens) (UniProt Q9NQV5); experiment: Selectivity interaction (Methyltransferase panel (DSF assay)) EUB0000234b PRDM11
[12] = target: Putative histone-lysine N-methyltransferase PRDM6 (Homo sapiens) (UniProt Q9NQX0); experiment: Selectivity interaction (Methyltransferase panel (DSF assay)) EUB0000234b PRDM6
[13] = target: Histone-lysine N-methyltransferase PRDM9 (Homo sapiens) (UniProt Q9NQV7); experiment: Selectivity interaction (Methyltransferase panel (DSF assay)) EUB0000234b PRDM9
[14] = target: Histone-lysine N-methyltransferase PRDM16 (Homo sapiens) (UniProt Q9HAZ2); experiment: Selectivity interaction (Methyltransferase panel (DSF assay)) EUB0000234b PRDM16
Histamine H3 receptor [15] = target: T3, Histamine H3 receptor (Homo sapiens, UniProt Q9Y5N1); experiment: Selectivity interaction (GloSensor assay) EUB0000234b HRH3
T3 sequence (Q9Y5N1 whole entry, the tested form may be a part): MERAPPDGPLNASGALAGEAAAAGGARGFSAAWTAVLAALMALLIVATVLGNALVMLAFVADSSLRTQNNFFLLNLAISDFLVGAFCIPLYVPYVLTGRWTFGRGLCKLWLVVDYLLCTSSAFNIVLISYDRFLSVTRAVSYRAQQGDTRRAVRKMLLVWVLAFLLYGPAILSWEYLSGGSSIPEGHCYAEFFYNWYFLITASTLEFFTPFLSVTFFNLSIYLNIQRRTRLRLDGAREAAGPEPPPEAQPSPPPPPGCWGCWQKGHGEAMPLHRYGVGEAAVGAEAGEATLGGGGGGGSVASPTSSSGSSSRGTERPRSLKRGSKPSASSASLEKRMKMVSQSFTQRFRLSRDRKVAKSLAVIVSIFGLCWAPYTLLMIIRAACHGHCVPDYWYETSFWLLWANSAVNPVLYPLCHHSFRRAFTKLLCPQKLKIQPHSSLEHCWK

[16] = target: PR domain zinc finger protein 2 (Homo sapiens) (UniProt Q13029); experiment: Selectivity interaction (Methyltransferase panel (DSF assay)) EUB0000234b PRDM2
[17] = target: PR domain zinc finger protein 8 (Homo sapiens) (UniProt Q9NQV8); experiment: Selectivity interaction (Methyltransferase panel (DSF assay)) EUB0000234b PRDM8
[18] = target: PR domain zinc finger protein 10 (Homo sapiens) (UniProt Q9NQV6); experiment: Selectivity interaction (Methyltransferase panel (DSF assay)) EUB0000234b PRDM10
Sequence of PR domain zinc finger protein 10 (Homo sapiens) (Q9NQV6 whole entry, the tested form may be a part): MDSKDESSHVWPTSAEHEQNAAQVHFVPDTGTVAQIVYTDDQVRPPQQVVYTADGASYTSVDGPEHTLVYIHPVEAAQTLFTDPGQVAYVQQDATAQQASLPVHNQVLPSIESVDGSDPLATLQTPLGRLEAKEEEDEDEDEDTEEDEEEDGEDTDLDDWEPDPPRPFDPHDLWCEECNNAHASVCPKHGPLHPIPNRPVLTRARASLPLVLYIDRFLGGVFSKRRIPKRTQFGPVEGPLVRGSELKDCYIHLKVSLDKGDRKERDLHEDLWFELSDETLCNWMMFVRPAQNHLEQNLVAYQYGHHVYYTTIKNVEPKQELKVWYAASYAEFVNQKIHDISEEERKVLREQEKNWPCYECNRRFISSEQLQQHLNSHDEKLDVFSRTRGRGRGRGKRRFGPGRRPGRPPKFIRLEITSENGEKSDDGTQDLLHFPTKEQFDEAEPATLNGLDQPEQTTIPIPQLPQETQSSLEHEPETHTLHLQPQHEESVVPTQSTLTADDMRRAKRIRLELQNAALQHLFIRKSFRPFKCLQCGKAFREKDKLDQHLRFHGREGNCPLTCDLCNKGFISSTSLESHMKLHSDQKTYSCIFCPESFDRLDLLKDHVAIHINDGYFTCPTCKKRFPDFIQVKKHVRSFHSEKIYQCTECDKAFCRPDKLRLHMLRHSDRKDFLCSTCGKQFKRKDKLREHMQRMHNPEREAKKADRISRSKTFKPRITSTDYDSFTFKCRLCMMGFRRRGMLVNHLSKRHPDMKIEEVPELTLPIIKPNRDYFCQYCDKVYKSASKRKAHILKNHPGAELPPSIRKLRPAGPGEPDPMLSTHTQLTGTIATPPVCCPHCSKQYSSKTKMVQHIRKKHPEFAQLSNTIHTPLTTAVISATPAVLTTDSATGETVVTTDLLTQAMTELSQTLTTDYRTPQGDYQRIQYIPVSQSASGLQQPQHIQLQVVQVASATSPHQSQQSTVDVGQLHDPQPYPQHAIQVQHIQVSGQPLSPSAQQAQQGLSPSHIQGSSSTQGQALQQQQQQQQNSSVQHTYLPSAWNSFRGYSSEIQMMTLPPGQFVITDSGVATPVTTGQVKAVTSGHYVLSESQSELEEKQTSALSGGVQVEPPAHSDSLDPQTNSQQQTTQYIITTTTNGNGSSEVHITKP

[19] = target: PR domain zinc finger protein 14 (Homo sapiens) (UniProt Q9GZV8); experiment: Selectivity interaction (Methyltransferase panel (DSF assay)) EUB0000234b PRDM14
[20] = target: PR domain zinc finger protein 13 (Homo sapiens) (UniProt Q9H4Q3); experiment: Selectivity interaction (Methyltransferase panel (DSF assay)) EUB0000234b PRDM13
Histamine H3 receptor [21] = target: T3, Histamine H3 receptor; experiment: Selectivity interaction (Eurofins Panlabs Discovery Services Panel (enzymes and receptors)) EUB0000234b HRH3; settings: at 10 µM
Adenosine receptor A2b = Adenosine receptor A2b (Homo sapiens, UniProt P29275); experiment: Selectivity interaction (GloSensor assay) EUB0000234b ADORA2B
Sequence of Adenosine receptor A2b (P29275 whole entry): as the sequence (P29275 whole entry) above

[22] = target: T4, Serine/threonine-protein kinase LATS2 (Homo sapiens) (UniProt Q9NRM7); experiment: Selectivity interaction (KinomeScan (DiscoverX)) EUB0000750a LATS2; settings: at 1 µM
T4 sequence (whole entry): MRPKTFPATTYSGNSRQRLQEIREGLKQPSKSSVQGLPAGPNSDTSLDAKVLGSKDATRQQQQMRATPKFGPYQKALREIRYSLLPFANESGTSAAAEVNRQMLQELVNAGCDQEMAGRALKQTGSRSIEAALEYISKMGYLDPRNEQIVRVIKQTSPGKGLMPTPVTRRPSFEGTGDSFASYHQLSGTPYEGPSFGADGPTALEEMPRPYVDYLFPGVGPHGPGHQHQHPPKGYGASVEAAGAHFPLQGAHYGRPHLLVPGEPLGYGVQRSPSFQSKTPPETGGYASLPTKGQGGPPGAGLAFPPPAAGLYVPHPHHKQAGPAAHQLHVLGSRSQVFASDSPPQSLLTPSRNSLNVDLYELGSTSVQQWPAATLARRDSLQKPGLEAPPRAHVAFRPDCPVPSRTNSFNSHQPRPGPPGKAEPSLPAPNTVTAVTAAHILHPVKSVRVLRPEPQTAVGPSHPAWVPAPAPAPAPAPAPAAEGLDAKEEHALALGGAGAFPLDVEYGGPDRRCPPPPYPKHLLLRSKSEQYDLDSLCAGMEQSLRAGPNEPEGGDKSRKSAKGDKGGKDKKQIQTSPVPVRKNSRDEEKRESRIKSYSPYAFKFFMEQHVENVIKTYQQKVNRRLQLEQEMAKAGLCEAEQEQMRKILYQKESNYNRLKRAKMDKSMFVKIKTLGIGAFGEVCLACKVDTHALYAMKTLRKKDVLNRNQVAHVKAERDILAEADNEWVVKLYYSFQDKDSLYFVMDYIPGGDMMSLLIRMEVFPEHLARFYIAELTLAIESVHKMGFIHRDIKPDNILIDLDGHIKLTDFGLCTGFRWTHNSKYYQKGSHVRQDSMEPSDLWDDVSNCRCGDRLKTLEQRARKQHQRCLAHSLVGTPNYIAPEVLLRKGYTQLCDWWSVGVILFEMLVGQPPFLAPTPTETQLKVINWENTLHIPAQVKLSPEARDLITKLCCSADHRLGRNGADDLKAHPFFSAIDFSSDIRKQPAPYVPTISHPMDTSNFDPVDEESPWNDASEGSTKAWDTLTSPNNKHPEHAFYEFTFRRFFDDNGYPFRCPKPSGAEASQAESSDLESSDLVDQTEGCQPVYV

[23] = target: Inhibitor of nuclear factor kappa-B kinase subunit epsilon (Homo sapiens) (UniProt Q14164); experiment: Selectivity interaction (KinomeScan (DiscoverX)) EUB0000750a IKBKE; settings: at 1 µM
[24] = target: Citron Rho-interacting kinase (Homo sapiens) (UniProt O14578); experiment: Selectivity interaction (KinomeScan (DiscoverX)) EUB0000750a CIT; settings: at 1 µM
[25] = target: RAC-alpha serine/threonine-protein kinase (Homo sapiens, UniProt P31749); experiment: Selectivity interaction (KinomeScan (DiscoverX)) EUB0000750a AKT1; settings: at 1 µM
[26] = target: Phosphatidylinositol 4,5-bisphosphate 3-kinase catalytic subunit alpha isoform (Homo sapiens, UniProt P42336); experiment: Selectivity interaction (KinomeScan (DiscoverX)) EUB0000750a PIK3CA; settings: at 1 µM
[27] = target: Epidermal growth factor receptor (Homo sapiens, UniProt P00533); experiment: Selectivity interaction (KinomeScan (DiscoverX)) EUB0000750a EGFR; settings: at 1 µM
[28] = target: Synaptic vesicular amine transporter (Homo sapiens, UniProt Q05940); experiment: Selectivity interaction (Enzyme and Receptor panel (MSD Pharma/Taiwan)) EUB0000750a SLC18A2

Sequence of Histone-lysine N-methyltransferase PRDM7 (Homo sapiens) (Q9NQW5 whole entry): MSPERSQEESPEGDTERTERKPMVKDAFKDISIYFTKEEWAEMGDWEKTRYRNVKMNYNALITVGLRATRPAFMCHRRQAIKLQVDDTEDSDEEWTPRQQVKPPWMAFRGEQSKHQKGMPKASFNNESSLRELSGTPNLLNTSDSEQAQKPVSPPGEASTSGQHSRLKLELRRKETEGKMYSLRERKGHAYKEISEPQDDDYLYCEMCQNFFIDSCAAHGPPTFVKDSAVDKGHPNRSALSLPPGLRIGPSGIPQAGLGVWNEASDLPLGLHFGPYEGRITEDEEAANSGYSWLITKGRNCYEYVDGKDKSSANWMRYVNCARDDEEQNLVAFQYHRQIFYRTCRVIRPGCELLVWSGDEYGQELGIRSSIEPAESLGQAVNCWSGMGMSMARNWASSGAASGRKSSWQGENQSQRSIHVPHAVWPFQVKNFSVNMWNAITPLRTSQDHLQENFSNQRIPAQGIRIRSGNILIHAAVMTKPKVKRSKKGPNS

Q: With COc1cc(OC)cc(-c2noc(N3CCN(C)C4(CCN(c5ccnc(C)c5)CC4)C3)n2)c1 as the compound, how does the dTm [1] read?
A: The dTm was 5 K.

Q: What about the dTm [2] of the same compound?
A: The dTm was 2 K.

Q: What about the EC50 (Mu-type opioid receptor [3]) of the same compound?
A: The EC50 was greater than 10 µM.

Q: And the dTm [4]?
A: The dTm was less than 2 K.

Q: And the % of inhibition (Mu-type opioid receptor [5])?
A: Its % of inhibition is greater than 50%.

Q: What about the % of inhibition [6] of the same compound?
A: Its % of inhibition is greater than 50%.

Q: What about the dTm [7] of the same compound?
A: Its dTm is less than 2 K.

Q: And the % of inhibition [8]?
A: The % of inhibition was greater than 50%.

Q: What about the dTm [9] of the same compound?
A: Its dTm is less than 2 K.

Q: What about the EC50 [10] of the same compound?
A: Its EC50 is greater than 10 µM.

Q: What about the dTm [11] of the same compound?
A: The dTm was less than 2 K.

Q: What about the dTm [12] of the same compound?
A: The dTm was less than 2 K.

Q: What about the dTm [13] of the same compound?
A: Its dTm is 5.2 K.

Q: And the dTm [14]?
A: The dTm was less than 2 K.

Q: What about the EC50 (Histamine H3 receptor [15]) of the same compound?
A: Its EC50 is greater than 10 µM.

Q: What about the dTm [16] of the same compound?
A: Its dTm is less than 2 K.

Q: And the dTm [17]?
A: The dTm was less than 2 K.

Q: And the dTm [18]?
A: Its dTm is less than 2 K.

Q: And the dTm [19]?
A: The dTm was less than 2 K.

Q: And the dTm [20]?
A: The dTm was less than 2 K.

Q: What about the % of inhibition (Histamine H3 receptor [21]) of the same compound?
A: Its % of inhibition is greater than 50%.

Q: What about the EC50 (Adenosine receptor A2b) of the same compound?
A: The EC50 was greater than 10 µM.

Q: How did the % of control [22] turn out when O=S(=O)(NC1CCC(c2cc(F)ccc2F)(S(=O)(=O)c2ccc(Cl)cc2)CC1)C(F)(F)F (centres undefined) [MRK-560] was run?
A: Its % of control is 0%.

Q: And the % of control [23]?
A: Its % of control is 0%.

Q: What about the % of control [24] of the same compound?
A: The % of control was 0%.

Q: And the % of control [25]?
A: The % of control was 5%.

Q: What about the % of control [26] of the same compound?
A: The % of control was 36%.

Q: And the % of control [27]?
A: The % of control was 0%.

Q: And the IC50 [28]?
A: Its IC50 is 0.213 µM.
